Results published in article PMC3070360 (Journal of natural products, 2011).

Tests used:
HCT-116 = assay: NCI-DTP 60 cell line screen, HCT-116; type: cell-based; settings: read-out: GI50 HCT-116, data provided by NCI-DTP, NA=not active
MDA-MB-231 = assay: NCI-DTP 60 cell line screen, MDA-MB-231; type: cell-based; settings: read-out: GI50 MDA-MB-231, data provided by NCI-DTP, NA=not active
IGROV-1 = assay: NCI 60 cell line screen, IGROV-1; type: cell-based, human; settings: read-out: GI50 IGROV-1, IGROV-1, Ovarian
U25-1 = assay: NCI 60 cell line screen, U25-1; type: cell-based; settings: read-out: GI50 U25-1, U25-1, CNS
NCI-H522 = assay: NCI 60 cell line screen, NCI-H522; type: cell-based; settings: read-out: GI50 NCI-H522, NCI-H522, Lung
DU-145 = assay: NCI 60 cell line screen, DU-145; type: cell-based; settings: read-out: GI50 DU-145, DU-145, Prostate
A498 = assay: NCI 60 cell line screen, A498; type: cell-based, human; settings: read-out: GI50 A498, A498, Renal
LOX-IMVI = assay: NCI 60 cell line screen, LOX-IMVI; type: cell-based, human; settings: read-out: GI50 LOX-IMVI, Melanoma
NCI 60 cell lines = assay: NCI 60 cell line screen, single dose and overall cytotoxicity; type: cell-based
HCT-116 cells = assay: Clonogenic dose-response analysis; type: cell-based
PC-3 = settings: read-out: GI50 PC-3; human prostate carcinoma cell line PC-3; cited from earlier work
LnCap = settings: read-out: GI50 LnCap; human prostate carcinoma cell line LnCap; cited from earlier work
TSU-Pr1 = settings: read-out: GI50 TSU-Pr1; human prostate carcinoma cell line TSU-Pr1; cited from earlier work

Substance | GI50 (HCT-116) [µM] | GI50 (MDA-MB-231) [µM] | GI50 (IGROV-1) [µM] | GI50 (U25-1) [µM] | GI50 (NCI-H522) [µM] | GI50 (DU-145) [µM] | GI50 (A498) [µM] | GI50 (LOX-IMVI) [µM] | Diminished cytotoxicity (summary in the conclusions) (NCI 60 cell lines) | Concentration achieving the desired therapeutic effect (90% kill of tumor cells) (HCT-116 cells; HCT-116, clonogenic, continuous exposure for seven days) [µM] | Toxicity to HCT-116 cells in the clonogenic assay (HCT-116 cells; two hour and 24 hour dosing schedules) | GI50 (PC-3) [µM] | GI50 (LnCap) [µM] | GI50 (TSU-Pr1) [µM]
jasplakinolide J [Compound 5] | 0.11 | 0.26 | 0.02 | 0.05 | 0.61 | 0.29 | 0.21 | 0.03 | ≈ 1 uM |  |  |  |  | 
(+)-jasplakinolide Z1 [Compound 9] |  | 2.5 | 1.76 | 0.6 | 0.12 | 18.8 |  | 0.28 |  |  |  |  |  | 
(+)-jasplakinolide V [Compound 13] | 0.07 | 0.09 | 0.03 | 0.04 | 0.06 | 0.08 | 0.01 | 0.007 |  |  |  |  |  | 
jasplakinolide B [Compound 3, reference compound] |  | 0.04 |  |  |  |  |  |  |  |  |  |  |  | 
(+)-jasplakinolide Z3 [Compound 11] |  | 0.74 | 0.17 | 0.05 | 0.04 | 3.72 | 0.44 | 0.16 |  |  |  |  |  | 
jasplakinolide Q [Compound 7] | 0.05 | 0.07 | 0.01 | 0.03 | 0.16 | 0.1 | 0.08 | 0.02 |  |  |  |  |  | 
jasplakinolide [Compound 1] |  |  |  |  |  |  |  |  |  | 0.004 | Little toxicity | 0.065 | 0.041 | 0.17
